From patent US20160235752A1, “COMPOSITIONS, METHODS OF USE, AND METHODS OF TREATMENT” (THE UNIVERSITY OF NEW ORLEANS, priority 2013, published 2016)
≈ marks a conversion by molar mass, not a printed value. Marks after values point to notes of the source that are not given here.

These compounds were tested on Candida albicans (ATCC no. 10231) (assay: MIC determination by broth microdilution (NCCLS), visual scoring). Conditions: Candida albicans, ATCC10231, read-out: MIC80 C. albicans.
Type: cell-based
Description: The antifungal activity of the 2,4,6-pyrimidinetrione analogs shown in Schemes 2-6 were evaluated in vitro using Candida albicans (ATCC no. 10231) and Candida glabrata (ATCC no 48435). All assays were done in accordance with NCCLS reference documents^29.
Master stock concentrations of all tested compounds were prepared to ensure that the maximum final concentration of DMSO was 1% or less. Subsequent 2-fold serial dilutions were made using sterile water to a final concentration of 1280-5.00 μg/ml. A final 10-fold dilution of each drug was made by aliquotting 0.1 mL of each drug dilution into 0.9 mL of fungal suspension in RPMI 1640 media with 10 mM HEPES buffer added (see methodology below), giving final concentrations tested in the range of 128-0.5 μg/ml.
Antifungal susceptibility studies and minimal inhibitory concentrations (MIC) values for Candida albicans (ATCC no. 10231) and Candida glabrata (ATCC no. 48435) were determined by the broth microdilution technique in accordance with NCCLS reference documents. Microdilution panels ranged from 0.5 to 128 μg/mL. All organisms were subcultured on Sabouraud agar and passaged to ensure purity and viability. The initiating inocula were prepared by picking 5-7 isolated colonies ˜1 mm in diameter from freshly prepared YM agar plates. Colonies were resuspended in sterile water, vortexed and the cell density was adjusted spectrophotometrically to the transmittance of a 0.5 McFarland standard at a wavelength of 530 nm, to yield a stock suspension of 1×10^6-5×10^6 cells/mL. The stock was allowed to hydrate for 30 minutes at room temperature. A working suspension was then made by diluting the stock 1:50 with RPMI 1640 media containing HEPES buffer. The working suspension was used for all assays. The plates were incubated at 35° C. for 48-72 hours in a humid atmosphere. Growth was scored visually. MIC values are defined as the lowest concentration of agent that prevents any discernible growth, ˜80% reduction of growth, as compared with drug-free control wells. All assays were run in parallel using either fluconazole or amphotericin B at the NCCLS recommended concentrations^29 as a drug control (Sigma-Aldrich).

`CN/N=C(\C)C1C(=O)NC(=O)NC1=O` [BA121, 5-[(1E)-1-(2-methylhydrazinylidene)ethyl]pyrimidine-2,4,6-trione] was tested. Which MIC80 did it give?
The MIC80 was greater than 125 µg/mL.

With `CN/N=C(\C)C1C(=O)N(C)C(=O)N(C)C1=O` [BA123, 1,3-dimethyl-5-[(1E)-1-(2-methylhydrazinylidene)ethyl]pyrimidine-2,4,6(1H,3H,5H)-trione] as the compound, how does the MIC80 read?
The MIC80 was greater than 125 µg/mL.

How did the MIC80 turn out when `CN/N=C/C1C(=O)N(C)C(=O)N(C)C1=O` [BA122, 1,3-dimethyl-5-[(E)-(2-methylhydrazinylidene)methyl]pyrimidine-2,4,6-trione] was run?
Its MIC80 is 62 µg/mL (≈ 292 µM).

`CN/N=C/C1C(=O)NC(=O)NC1=O` [BA120, 5-[(E)-(2-methylhydrazinylidene)methyl]pyrimidine-2,4,6-trione] was tested. Which MIC80 did it give?
The MIC80 was greater than 125 µg/mL.

Which MIC80 does the source give for `CN1C(=O)C(/C=N/N)C(=O)N(C)C1=O` [BA117, 5-[(E)-hydrazinylidenemethyl]-1,3-dimethylpyrimidine-2,4,6-trione] here?
The MIC80 was 125 µg/mL (≈ 631 µM).

How did the MIC80 turn out when `C/C(=N\N)C1C(=O)NC(=O)NC1=O` [BA118, 5-[(1E)-1-hydrazinylideneethyl]pyrimidine-2,4,6-trione] was run?
The MIC80 was greater than 125 µg/mL.

`N/N=C/C1C(=O)NC(=O)NC1=O` [BA116, 5-[(E)-hydrazinylidenemethyl]pyrimidine-2,4,6-trione] was tested. Which MIC80 did it give?
Its MIC80 is 125 µg/mL (≈ 735 µM).

How did the MIC80 turn out when `C/C(=N\N)C1C(=O)N(C)C(=O)N(C)C1=O` [BA119, 5-[(1E)-1-hydrazinylideneethyl]-1,3-dimethylpyrimidine-2,4,6-trione] was run?
Its MIC80 is greater than 125 µg/mL.

Same assay, conditions: Table 2, 5-Arylidene-2,4,6-pyrimidinetriones

For `O=C1NC(=O)C(=CC=Cc2ccccc2)C(=O)N1` [BA42], which “MIC80 C. albicans” value is on record?
Its value is 62 µg/mL (≈ 256 µM).

Same assay, conditions: Table 5, Schiff Bases of 5-acylpyrimidinetriones

How did the “MIC80 C. albicans” value turn out when `CN1C(=O)C(C=Nc2ccccn2)C(=O)N(C)C1=O` [BA104] was run?
The value was “— (none of the 5-acyl-2,4,6-pyrimidinetriones, 5-alkylated pyrimidinetriones or the 5,5-dialkylated pyrimidinetriones showed antifungal activity through 125 μg/mL)”.

`CN1C(=O)C(/C=N/n2cnnc2)C(=O)N(C)C1=O` [BA110] was tested. Which “MIC80 C. albicans” value did it give?
Its value is “— (none of the 5-acyl-2,4,6-pyrimidinetriones, 5-alkylated pyrimidinetriones or the 5,5-dialkylated pyrimidinetriones showed antifungal activity through 125 μg/mL)”.

Which “MIC80 C. albicans” value does the source give for `CN1C(=O)C(C=Nc2ccc([N+](=O)[O-])cc2)C(=O)N(C)C1=O` [BA102] here?
Its value is “— (none of the 5-acyl-2,4,6-pyrimidinetriones, 5-alkylated pyrimidinetriones or the 5,5-dialkylated pyrimidinetriones showed antifungal activity through 125 μg/mL)”.

With `CN1C(=O)C(/C=N/c2nnc[nH]2)C(=O)N(C)C1=O` [BA108] as the compound, how does the “MIC80 C. albicans” value read?
The value was “— (none of the 5-acyl-2,4,6-pyrimidinetriones, 5-alkylated pyrimidinetriones or the 5,5-dialkylated pyrimidinetriones showed antifungal activity through 125 μg/mL)”.

`CN1C(=O)C(C=Nc2ccc(-c3ccccc3)cc2)C(=O)N(C)C1=O` [BA106] was tested. Which “MIC80 C. albicans” value did it give?
Its value is “— (none of the 5-acyl-2,4,6-pyrimidinetriones, 5-alkylated pyrimidinetriones or the 5,5-dialkylated pyrimidinetriones showed antifungal activity through 125 μg/mL)”.

`O=C1NC(=O)C(C=Nc2ccccn2)C(=O)N1` [BA103] was tested. Which “MIC80 C. albicans” value did it give?
The value was “— (none of the 5-acyl-2,4,6-pyrimidinetriones, 5-alkylated pyrimidinetriones or the 5,5-dialkylated pyrimidinetriones showed antifungal activity through 125 μg/mL)”.

With `O=C1NC(=O)C(/C=N/c2ccc(-c3ccccc3)cc2)C(=O)N1` [BA105] as the compound, how does the “MIC80 C. albicans” value read?
The value was “— (none of the 5-acyl-2,4,6-pyrimidinetriones, 5-alkylated pyrimidinetriones or the 5,5-dialkylated pyrimidinetriones showed antifungal activity through 125 μg/mL)”.

Which “MIC80 C. albicans” value does the source give for `O=C1NC(=O)C(/C=N/c2nnc[nH]2)C(=O)N1` [BA107] here?
Its value is “— (none of the 5-acyl-2,4,6-pyrimidinetriones, 5-alkylated pyrimidinetriones or the 5,5-dialkylated pyrimidinetriones showed antifungal activity through 125 μg/mL)”.

With `O=C1NC(=O)C(/C=N/C2N=NN=N2)C(=O)N1` [BA111] as the compound, how does the “MIC80 C. albicans” value read?
Its value is “— (none of the 5-acyl-2,4,6-pyrimidinetriones, 5-alkylated pyrimidinetriones or the 5,5-dialkylated pyrimidinetriones showed antifungal activity through 125 μg/mL)”.

With `COc1ccc(N=C(C)C2C(=O)N(C)C(=O)N(C)C2=O)cc1` [BA99] as the compound, how does the “MIC80 C. albicans” value read?
Its value is “— (none of the 5-acyl-2,4,6-pyrimidinetriones, 5-alkylated pyrimidinetriones or the 5,5-dialkylated pyrimidinetriones showed antifungal activity through 125 μg/mL)”.

With `O=C1NC(=O)C(C=Nc2ccc([N+](=O)[O-])cc2)C(=O)N1` [BA101] as the compound, how does the “MIC80 C. albicans” value read?
Its value is “— (none of the 5-acyl-2,4,6-pyrimidinetriones, 5-alkylated pyrimidinetriones or the 5,5-dialkylated pyrimidinetriones showed antifungal activity through 125 μg/mL)”.

For `O=C1NC(=O)C(/C=N/n2cnnc2)C(=O)N1` [BA109], which “MIC80 C. albicans” value is on record?
The value was “— (none of the 5-acyl-2,4,6-pyrimidinetriones, 5-alkylated pyrimidinetriones or the 5,5-dialkylated pyrimidinetriones showed antifungal activity through 125 μg/mL)”.

For `COc1ccc(N=C(C)C2C(=O)NC(=O)NC2=O)cc1` [BA100], which “MIC80 C. albicans” value is on record?
Its value is “— (none of the 5-acyl-2,4,6-pyrimidinetriones, 5-alkylated pyrimidinetriones or the 5,5-dialkylated pyrimidinetriones showed antifungal activity through 125 μg/mL)”.

For `COc1ccc(N=CC2C(=O)NC(=O)NC2=O)cc1` [BA97], which “MIC80 C. albicans” value is on record?
The value was “— (none of the 5-acyl-2,4,6-pyrimidinetriones, 5-alkylated pyrimidinetriones or the 5,5-dialkylated pyrimidinetriones showed antifungal activity through 125 μg/mL)”.

Same assay, conditions: Table 8, N-Acylhydrazones of 5-Acylpyrimidinetriones

How did the “MIC80 C. albicans” value turn out when `COc1ccc(C(=O)NN=C(C)C2C(=O)N(C)C(=O)N(C)C2=O)cc1` [BA135] was run?
Its value is “— (none of the 5-acyl-2,4,6-pyrimidinetriones, 5-alkylated pyrimidinetriones or the 5,5-dialkylated pyrimidinetriones showed antifungal activity through 125 μg/mL)”.

For `COc1ccc(C(=O)N/N=C/C2C(=O)NC(=O)NC2=O)cc1` [BA132], which “MIC80 C. albicans” value is on record?
The value was “— (none of the 5-acyl-2,4,6-pyrimidinetriones, 5-alkylated pyrimidinetriones or the 5,5-dialkylated pyrimidinetriones showed antifungal activity through 125 μg/mL)”.

How did the “MIC80 C. albicans” value turn out when `CN1C(=O)C(/C=N/NC(=O)c2ccccc2)C(=O)N(C)C1=O` [BA125] was run?
Its value is “— (none of the 5-acyl-2,4,6-pyrimidinetriones, 5-alkylated pyrimidinetriones or the 5,5-dialkylated pyrimidinetriones showed antifungal activity through 125 μg/mL)”.

How did the “MIC80 C. albicans” value turn out when `CC(=NNC(=O)c1ccc([N+](=O)[O-])cc1)C1C(=O)NC(=O)NC1=O` [BA130] was run?
The value was “— (none of the 5-acyl-2,4,6-pyrimidinetriones, 5-alkylated pyrimidinetriones or the 5,5-dialkylated pyrimidinetriones showed antifungal activity through 125 μg/mL)”.

For `COc1ccc(C(=O)NN=C(C)C2C(=O)NC(=O)NC2=O)cc1` [BA134], which “MIC80 C. albicans” value is on record?
Its value is “— (none of the 5-acyl-2,4,6-pyrimidinetriones, 5-alkylated pyrimidinetriones or the 5,5-dialkylated pyrimidinetriones showed antifungal activity through 125 μg/mL)”.

With `CC(=NNC(=O)c1ccccc1)C1C(=O)N(C)C(=O)N(C)C1=O` [BA127] as the compound, how does the “MIC80 C. albicans” value read?
Its value is “— (none of the 5-acyl-2,4,6-pyrimidinetriones, 5-alkylated pyrimidinetriones or the 5,5-dialkylated pyrimidinetriones showed antifungal activity through 125 μg/mL)”.

Which “MIC80 C. albicans” value does the source give for `C/C(=N\NC(=O)c1ccccc1)C1C(=O)NC(=O)NC1=O` [BA126] here?
The value was “— (none of the 5-acyl-2,4,6-pyrimidinetriones, 5-alkylated pyrimidinetriones or the 5,5-dialkylated pyrimidinetriones showed antifungal activity through 125 μg/mL)”.

Same assay, conditions: Table 8, values marked * (no footnote in this table)

`O=C1NC(=O)C(/C=N/NC(=O)c2ccc([N+](=O)[O-])cc2)C(=O)N1` [BA128] was tested. Which “MIC80 C. albicans” value did it give?
Its value is 62* μg/mL.

With `COc1ccc(C(=O)N/N=C/C2C(=O)N(C)C(=O)N(C)C2=O)cc1` [BA133] as the compound, how does the “MIC80 C. albicans” value read?
The value was 62* μg/mL.

For `CN1C(=O)C(/C=N/NC(=O)c2ccc([N+](=O)[O-])cc2)C(=O)N(C)C1=O` [BA129], which “MIC80 C. albicans” value is on record?
Its value is 62* μg/mL.

Same assay, conditions: Table 9, Benzenesuifonohydrazones of 5-Acylpyrimidinetrione

For `CN1C(=O)C(C=NNS(=O)(=O)c2ccccc2)C(=O)N(C)C1=O` [BA137], which “MIC80 C. albicans” value is on record?
The value was “— (none of the 5-acyl-2,4,6-pyrimidinetriones, 5-alkylated pyrimidinetriones or the 5,5-dialkylated pyrimidinetriones showed antifungal activity through 125 μg/mL)”.

How did the “MIC80 C. albicans” value turn out when `O=C1NC(=O)C(C=NNS(=O)(=O)c2ccccc2)C(=O)N1` [BA136] was run?
The value was “— (none of the 5-acyl-2,4,6-pyrimidinetriones, 5-alkylated pyrimidinetriones or the 5,5-dialkylated pyrimidinetriones showed antifungal activity through 125 μg/mL)”.

How did the “MIC80 C. albicans” value turn out when `C/C(=N\NS(=O)(=O)c1ccc(C)cc1)C1C(=O)NC(=O)NC1=O` [BA114] was run?
The value was “— (none of the 5-acyl-2,4,6-pyrimidinetriones, 5-alkylated pyrimidinetriones or the 5,5-dialkylated pyrimidinetriones showed antifungal activity through 125 μg/mL)”.

With `C/C(=N\NS(=O)(=O)c1ccccc1)C1C(=O)N(C)C(=O)N(C)C1=O` [BA139] as the compound, how does the “MIC80 C. albicans” value read?
Its value is “— (none of the 5-acyl-2,4,6-pyrimidinetriones, 5-alkylated pyrimidinetriones or the 5,5-dialkylated pyrimidinetriones showed antifungal activity through 125 μg/mL)”.

With `Cc1ccc(S(=O)(=O)N/N=C/C2C(=O)N(C)C(=O)N(C)C2=O)cc1` [BA115] as the compound, how does the “MIC80 C. albicans” value read?
The value was “— (none of the 5-acyl-2,4,6-pyrimidinetriones, 5-alkylated pyrimidinetriones or the 5,5-dialkylated pyrimidinetriones showed antifungal activity through 125 μg/mL)”.

Which “MIC80 C. albicans” value does the source give for `C/C(=N\NS(=O)(=O)c1ccccc1)C1C(=O)NC(=O)NC1=O` [BA138] here?
Its value is “— (none of the 5-acyl-2,4,6-pyrimidinetriones, 5-alkylated pyrimidinetriones or the 5,5-dialkylated pyrimidinetriones showed antifungal activity through 125 μg/mL)”.

Same assay, conditions: Table 9, value marked ** (footnote not given)

For `Cc1ccc(S(=O)(=O)N/N=C/C2C(=O)NC(=O)NC2=O)cc1` [BA113], which “MIC80 C. albicans” value is on record?
Its value is 16** μg/mL.
